# Target: T1, PHEC27213 (PxLPMO1) (Podosphaera xanthii, UniProt A0A8E4PV92)
# T1 construct: gene SHLPMO1; mature protein, signal peptide removed (191 residues), C-terminal 6xHis tag kept, pET30b NdeI/XhoI, E. coli BL21-CodonPlus-RIL; start Met from NdeI site probably before His1
# Test: MALDI-TOF-MS of reaction products
# Type: biochemical
# Conditions: 1 mM ascorbic acid as reductant, 0.1 M sodium phosphate pH 7.0, 37 °C overnight, 1 μM enzyme; no copper addition told
# T1 sequence (A0A8E4PV92 entry or part of it): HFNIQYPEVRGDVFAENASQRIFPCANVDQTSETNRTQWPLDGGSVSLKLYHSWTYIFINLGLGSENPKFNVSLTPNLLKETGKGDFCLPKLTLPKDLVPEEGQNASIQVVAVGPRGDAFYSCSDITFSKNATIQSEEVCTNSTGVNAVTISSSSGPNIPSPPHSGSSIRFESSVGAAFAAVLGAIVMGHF
structure (smiles),measurement,value
"CC(=O)N[C@H]1[C@H](O[C@H]2[C@H](O)[C@@H](NC(C)=O)[C@H](O[C@H]3[C@H](O)[C@@H](NC(C)=O)[C@H](O[C@H]4[C@H](O)[C@@H](NC(C)=O)C(O)O[C@@H]4CO)O[C@@H]3CO)O[C@@H]2CO)O[C@H](CO)[C@@H](O[C@@H]2O[C@H](CO)[C@@H](O[C@@H]3O[C@H](CO)[C@@H](O[C@@H]4O[C@H](CO)[C@@H](O)[C@H](O)[C@H]4NC(C)=O)[C@H](O)[C@H]3NC(C)=O)[C@H](O)[C@H]2NC(C)=O)[C@@H]1O (stereo partly shown) [DP7, hepta-N-acetylchitoheptaose]",MALDI-TOF-MS of reaction products,"PHEC27213 was able to release, predominantly, DP5 oligosaccharides"

# Source: article PMC8035642, “A haustorial‐expressed lytic polysaccharide monooxygenase from the cucurbit powdery mildew pathogen Podosphaera xanthii contributes to the suppression of chitin‐triggered immunity” (Molecular Plant Pathology, 2021)
